Here are results for six compounds from patent US9770430B2, “Desferrioxamine-metal complexes for the treatment of immune-related disorders” (priority 2009, dated 2017).

“And” between values parts separate entries of the source, which are not always exact repeats. Equal entries are not always repeated.

The test system of series [1] is high energy diet-induced Type II diabetes. As to the kind of experiment: Sand rat high energy diet Type II diabetes model, glucose tolerance test and cataract formation (Example 6). To be noted: for three hours response to an orally-administered glucose dose, value above the zero (standard diet Group I): 200 mg glucose per 100 g body weight, end of 53 day experiment, high energy diet; for Cataract formation: high energy diet (HE) sand rats, 53 days. Format: in vivo, sand rat (Psammomis obesus). From the text:
(§1) Sand rats (Psammomis Obesus) were used as a model for Type 2 diabetes. The sand rats transferred onto high energy diet develop a severe form of Type 2 diabetes, including high blood glucose level, increase in body weight, and cataract development (eye lens opacification).
(§2) The sand rats were divided into groups. The animals from the Group I received the standard diet, serving as a control, whereas animals from the other indicated groups received high energy diet, leading to diabetes development. The high-energy diet ed mice were either untreated, or treated with intra-peritoneal injections of 2.5 mg/kg body weight Ga-DFO, Zn-DFO, DFO alone, Zn, Ga or lipoic acid (LA), either twice or three times per week, as indicated, for the duration of the experiment. The blood glucose and body weight of the animals were monitored throughout the experiment.
Forty two sand rats were divided into seven groups, six animals in each. The animals from Group I received the standard diet and used as a control. The animals from the Groups II, III, IV, V, VI and VII received high energy diet, leading to diabetes development, while Groups III, IV and VII were treated with Zn-DFO, Ga-DFO and DFO alone, respectively. The Groups V and VI received Zn and Ga, in their chloride salt form, alone respectively. Administration of the different treatments was as described, and the experiment lasted for 53 days. Glucose tolerance test was performed at the end of experiment. The cataract formation was tested as well.

The conditions of series [2]: complex of desferrioxamine with the named metal ion; cited from earlier work.
Series [3] concerns ovalbumin-induced asthma. As to the kind of experiment: Ovalbumin-induced asthma, treatment of chronic asthma model (BAL cells, lung histology). The class given is in vivo, BALB/c mice. To be noted: Mean ± SE. As for the experimental part:
• Twelve-week-old Balb/c mice were administered 10 μg (100 μl) ovalbumin (OVA) dissolved with 3 mg Al(OH)3 in 0.9% saline intraperitoneally (i.p.) on days 0, 7 and 14, and 10 μg (50 μl) OVA intranasally (i.n.) on days 20, 23, 25, 27, 29, 31, 34, 36, 37, 41, 43 and 45. For intranasal administration, mice were anesthetized with inhaled N-flurane and instilled with OVA i.n. with a micropipette. • Three-week-old BALB/c mice were sensitized (×3) with intra-peritoneal (i/p) injection (100 μl OVA solution, containing 0.3 mg OVA and 6.7 mg Al(OH)3, in 1 ml PBS) on days 0, 7 and 14. On days 14, 15, 17, 21 and 23 the mice were further sensitized with intranasal sprinklings (50 μl, each) of OVA in PBS solution containing 2 mg/ml OVA, as following: mice were anesthetized with inhaled N-flurane and instilled with OVA intra-nasally using a micropipette. Twenty-four hours after the last administration of OVA, the mice were sacrificed. Methacholine Challenge and Collection of Histologic Sections and Biochemical Samples
Either Zn-DFO, Ga-DFO, Zn-DFO and Ga-DFO 1:1 combination (herein metal complexes) or saline were administered as follows: on days −5, −1, 7 and 14, 1 mg/kg body weight metal complexes or saline were administered intraperitoneally (i.p.). On days 0, 6, 8, 13 and 15, 0.3 mg/kg body weight metal complexes or saline were administered i.p. On days 20, 23, 25, 27, 29, 31, 34, 36, 37, 41, 43 and 45, 0.3 mg/kg body weight metal complexes or saline were administered intranasally (i.n.). Twenty-four hours after the last sensitization, mice were anesthetized with urethane and the lungs were lavaged 4 times with 0.5 ml sterile PBS. Animals in the “control” group (non-asthmatic—saline treated, but not sensitized) (n=6) received saline injections and instillations, using the same regime as the asthmatic and treated animals. Animals of the “asthmatic” group (sensitized and saline-treated, rather than complex-treated) (n=6) received saline instead of the respective complex, under the same regime.
For the treatment of chronic asthma model, a similar experimental protocol was followed, with the following modifications: 1 mg/kg body weight metal complexes or saline were administered i.p. on day 0 (instead of days −5 and −1) and a further 0.3 mg/kg complexes or saline were administered on day 1. In this model, the effects of the complexes were investigated further by histological examination of lung sections stained with either haematoxylin-eosine or PAS/AB (periodic acid-Schiff/alcan blue).
(§3) To estimate the anti-asthmatic effect of the complexes the following parameters were measured: the concentration of ferritin in the lungs, the presence of inflammatory cells infiltration into the lungs, and the amounts of macrophages, eosinophils, lymphocytes and neutrophils in bronchoalveolar lavages (BALs).

For series [4], the system named is high energy diet-induced Type II diabetes. As to the kind of experiment: Sand rat high energy diet Type II diabetes model, blood glucose and body weight (Example 5). Format: in vivo, sand rat (Psammomis obesus).
Excerpt: as §1, §2
The sand rats were divided into four groups (6 animals in each). Animals from Group I received the standard diet, serving as a control. The animals from the Groups II, III and W received high energy diet, leading to diabetes development, while Groups III and IV were treated with Ga-DFO and lipoic acid (LA), respectively. The intra-peritoneal injections of 2.5 mg Ga-DFO or LA per kg body weight were performed twice a week, for 61 days. The blood glucose and body weight of the animals were monitored during all the experiment.

The nature of series [5]: pH limit of the complex solution during preparation (loss of biological activities). The class given is physicochemical. To be noted: pH above 5.6; solution reacts with air-containing CO2.
Series [6] deals with ovalbumin-induced asthma. Kind of series: Ovalbumin-induced asthma, prophylactic treatment model (lung ferritin). Format: in vivo, BALB/c mice. To be noted: asthmatic mice, 1 and 0.3 mg/kg i.p., then 0.3 mg/kg i.n. How it is done:
Ferritin concentration was quantified using an indirect ‘sandwich’ ELISA assay in accordance with a procedure developed previously in our laboratory. Briefly, ELISA 96-well micro plates were pre-coated with goat anti-human L-ferritin antibody. Rabbit anti-human H-ferritin was used as the secondary antibody. Plates were treated with goat anti-rabbit IgG conjugated with β-galactosidase. Chlorophenol Red-β-D-Galactopyranoside was then added and the plates analyzed using a microplate reader with a test (570 nm) and reference (630 nm) filters.
• Twelve-week-old Balb/c mice were administered 10 μg (100 μl) ovalbumin (OVA) dissolved with 3 mg Al(OH)3 in 0.9% saline intraperitoneally (i.p.) on days 0, 7 and 14, and 10 μg (50 μl) OVA intranasally (i.n.) on days 20, 23, 25, 27, 29, 31, 34, 36, 37, 41, 43 and 45. […]
as §3

The mark [7] stands for this setting: Day 0, 2.5 mg/kg i.p. twice a week, mean, SD in the line below.
Where [8] appears, read: Day 7, 2.5 mg/kg i.p. twice a week.
[9] abbreviates: Day 21, 2.5 mg/kg i.p. twice a week.
Setting [10] is: Day 21, 2.5 mg/kg i.p. twice a week, 2.5 mg/kg.
Where [11] appears, read: Day 32, 2.5 mg/kg i.p. twice a week.
[12] abbreviates: Day 42, 2.5 mg/kg i.p. twice a week.
Setting [13] is: Day 49, 2.5 mg/kg i.p. twice a week.
Where [14] appears, read: Day 56, 2.5 mg/kg i.p. twice a week.
Setting [15] is: Day 61, 2.5 mg/kg i.p. twice a week.
Setting [16] is: Day 61, 2.5 mg/kg i.p. twice a week, 2.5 mg/kg.

Take `CC(=O)N(O)CCCCCNC(=O)CCC(=O)N(O)CCCCCNC(=O)CCC(=O)N(O)CCCCCN` [DFO, N′-{5-[acetyl(hydroxy)amino]pentyl}-N-[5-({4-[(5-aminopentyl)(hydroxy)amino]-4-oxobutanoyl}amino)pentyl]-N-hydroxy-succinamide]: in series [1], the “three hours response to an orally-administered glucose dose, value above the zero (standard diet Group I)” value (“three hours response” for short) came out at 150 mg/dL and the Cataract formation is on record as 25%.
Take `CC(=O)N([O-])CCCCCNC(=O)CCC(=O)N([O-])CCCCCNC(=O)CCC(=O)N([O-])CCCCCN.[Fe+3]` [Fe(III), reference compound]: the “relative stability constants for the complexes of desferrioxamine” value in series [2] is listed as 10^31.
As for `[Cl-].[Cl-].[Cl-].[Ga+3]` [Ga, Gallium (III) chloride], in series [1], the “three hours response” value came out at 25 mg/dL and the Cataract formation is on record as 36%.
Turning to `CC(=O)N([O-])CCCCCNC(=O)CCC(=O)N([O-])CCCCCNC(=O)CCC(=O)N([O-])CCCCCN.[Ga+3]` [Ga-DFO, gallium-desferrioxamine], the “Eosinophils in BAL fluid” value with ovalbumin-induced asthma [3] was 0.2 ± 0.02^# 10^4 cells/ml. Further, the “Lymphocytes in BAL fluid” value in the series on ovalbumin-induced asthma [3] was 0.3 ± 0.06^# 10^4 cells/ml. The “Macrophages in BAL fluid” value in the series on ovalbumin-induced asthma [3] was 3.3 ± 0.2^# 10^4 cells/ml. Further, the “Neutrophils in BAL fluid” value in the series with ovalbumin-induced asthma [3] is on record as 0.3 ± 0.07^# 10^4 cells/ml. For the same compound, the “Total WBC in BAL fluid” value in the series on ovalbumin-induced asthma [3] is 4.5 ± 0.6^# 10^4 cells/ml. The Blood glucose level in series [4] (setting [7]) was 91.8 mg/dL; in series [4] (setting [8]), 94.6 mg/dL; in series [4] (setting [10]), 176 ± 46 mg/dL and 176.4 mg/dL; in series [4] (setting [11]), 81.2 mg/dL; in series [4] (setting [12]) it was 89.0 mg/dL; in series [4] (setting [13]) it was 122.0 mg/dL. For the same compound, the Blood glucose level in series [4] (setting [14]) was 129.2 mg/dL; in series [4] (setting [16]), 98 ± 29 mg/dL and 97.8 mg/dL. Further, the Body weight was determined as 131.6 g in series [4] (setting [7]); 154.0 g in series [4] (setting [8]); 173.2 g in series [4] (setting [9]); 180.4 g in series [4] (setting [11]); 192.4 g in series [4] (setting [12]); 204.0 g in series [4] (setting [13]). The Body weight in series [4] (setting [14]) was 212.4 g; in series [4] (setting [15]), 214.4 g. In series [5], the “effect of higher pH on the Ga-DFO solution” value is “marked loss of the biological activities”. Also, the lung ferritin level in the series on ovalbumin-induced asthma [6] was 0.5 ± 0.3 µg/mg. Also, the “three hours response” value in series [1] stood at 5 mg/dL. This compound yielded a Cataract formation in series [1] of 11%. Besides, the “relative stability constants for the complexes of desferrioxamine” value in series [2] is recorded as 10^28.
`O=C(O)CCCCC1CCSS1` (stereo not shown) [LA, Lipoic acid, reference compound]: the Blood glucose level in series [4] (setting [7]) was 92.8 mg/dL; in series [4] (setting [8]) it was 97.4 mg/dL; in series [4] (setting [10]), 259 ± 49 mg/dL and 259.4 mg/dL; in series [4] (setting [11]) it was 176.4 mg/dL; in series [4] (setting [12]), 196.4 mg/dL; in series [4] (setting [13]) it was 185.2 mg/dL. For the same compound, the Blood glucose level in series [4] (setting [14]) was 220.6 mg/dL; in series [4] (setting [16]), 168 ± 33 mg/dL and 167.8 mg/dL. Besides, the Body weight in series [4] (setting [7]) amounted to 113.4 g; in series [4] (setting [8]), 137.0 g; in series [4] (setting [9]) it was 160.4 g; in series [4] (setting [11]), 170.2 g; in series [4] (setting [12]), 189.2 g; in series [4] (setting [13]) it was 201.4 g. Further, the Body weight in series [4] (setting [14]) was 211.8 g; in series [4] (setting [15]) it was 218.0 g.
Consider `[Cl-].[Cl-].[Zn+2]` [Zn, Zinc chloride], for which, in series [1], the “three hours response” value was determined as 38 mg/dL and the Cataract formation was determined as 22%.
